Measured values from ChEMBL document CHEMBL3885881, “DrugMatrix”.

Species on record: Rattus norvegicus
Experiment: DrugMatrix - Regimen: Daily Repeat
Assay type: toxicity, organism-based, Sprague-Dawley
Parameters: regimen Daily Repeat, gender Male, age 6-8 weeks
Conditions: in vivo, ip, 60 mg/kg, route intraperitoneal, dose level High, vehicle 100 % PBS; for BASOPHIL / EOSINOPHIL / ERYTHROCYTE COUNT / HEMATOCRIT / HEMOGLOBIN / LEUKOCYTE COUNT / LYMPHOCYTE / MEAN CORPUSCULAR HEMOGLOBIN / MEAN CORPUSCULAR HEMOGLOBIN CONCENTRATION / MEAN CORPUSCULAR VOLUME / MONOCYTE / NEUTROPHIL / PLATELET COUNT: tissue Blood; for ALANINE AMINOTRANSFERASE / ALBUMIN / ALKALINE PHOSPHATASE / ASPARTATE AMINOTRANSFERASE / BLOOD UREA NITROGEN / CARBON DIOXIDE / CHLORIDE / CHOLESTEROL / CREATINE PHOSPHOKINASE / CREATININE / GLUCOSE / LACTATE DEHYDROGENASE / LIPASE / PHOSPHORUS / POTASSIUM / SODIUM / TOTAL BILIRUBIN / TOTAL PROTEIN / URIC ACID: tissue Plasma

For C[C@H]1C(=O)O[C@@H]2CCN3CC=C(COC(=O)[C@](C)(O)[C@]1(C)O)[C@H]23 [MONOCROTALINE], the BASOPHIL (72 h, time 3 day) was 1.7%, the EOSINOPHIL (72 h, time 3 day) was 1% and the “ERYTHROCYTE COUNT” value (72 h, time 3 day) was 6.77 x10E6/uL. The HEMATOCRIT (72 h, time 3 day) was 46.53%, the HEMOGLOBIN (72 h, time 3 day) was 14.7 G/DL and the “LEUKOCYTE COUNT” value (72 h, time 3 day) was 8.87 x10E3/uL. The LYMPHOCYTE (72 h, time 3 day) was 84.3%, the “MEAN CORPUSCULAR HEMOGLOBIN” value (72 h, time 3 day) was 21.73 pg and the “MEAN CORPUSCULAR HEMOGLOBIN CONCENTRATION” value (72 h, time 3 day) was 31.63 G/DL. For the same compound, the “MEAN CORPUSCULAR VOLUME” value (72 h, time 3 day) was 68.73 fL, the MONOCYTE (72 h, time 3 day) was 1.9% and the NEUTROPHIL (72 h, time 3 day) was 9.57%. For the same compound, the “PLATELET COUNT” value (72 h, time 3 day) was 1156.67 x10E3/uL, the “ALANINE AMINOTRANSFERASE” value (72 h, time 3 day) was 33.67 u/L and the ALBUMIN (72 h, time 3 day) was 4.27 G/DL. For the same compound, the “ALKALINE PHOSPHATASE” value (72 h, time 3 day) was 425.33 u/L, the “ASPARTATE AMINOTRANSFERASE” value (72 h, time 3 day) was 77.33 u/L and the “BLOOD UREA NITROGEN” value (72 h, time 3 day) was 16 mg/dL. For the same compound, the “CARBON DIOXIDE” value (72 h, time 3 day) was 30 mmol/L, the CHLORIDE (72 h, time 3 day) was 104.33 MEQ/L and the CHOLESTEROL (72 h, time 3 day) was 79 mg/dL. The “CREATINE PHOSPHOKINASE” value (72 h, time 3 day) was 394.33 u/L, the CREATININE (72 h, time 3 day) was 0.47 mg/dL and the GLUCOSE (72 h, time 3 day) was 166.33 mg/dL. The “LACTATE DEHYDROGENASE” value (72 h, time 3 day) was 66 u/L, the LIPASE (72 h, time 3 day) was 14.67 u/L and the PHOSPHORUS (72 h, time 3 day) was 12.57 mg/dL. For the same compound, the POTASSIUM (72 h, time 3 day) was 7.2 MEQ/L, the SODIUM (72 h, time 3 day) was 148.33 MEQ/L and the “TOTAL BILIRUBIN” value (72 h, time 3 day) was 0.47 mg/dL. The “TOTAL PROTEIN” value (72 h, time 3 day) was 6.57 G/DL, the “URIC ACID” value (72 h, time 3 day) was 1.77 mg/dL and the BASOPHIL (120 h, time 5 day) was 0.4%. The EOSINOPHIL (120 h, time 5 day) was 0.6%, the “ERYTHROCYTE COUNT” value (120 h, time 5 day) was 7.1 x10E6/uL and the HEMATOCRIT (120 h, time 5 day) was 48.3%. The HEMOGLOBIN (120 h, time 5 day) was 14.93 G/DL, the “LEUKOCYTE COUNT” value (120 h, time 5 day) was 10.69 x10E3/uL and the LYMPHOCYTE (120 h, time 5 day) was 91.33%. For the same compound, the “MEAN CORPUSCULAR HEMOGLOBIN” value (120 h, time 5 day) was 21.03 pg, the “MEAN CORPUSCULAR HEMOGLOBIN CONCENTRATION” value (120 h, time 5 day) was 30.93 G/DL and the “MEAN CORPUSCULAR VOLUME” value (120 h, time 5 day) was 68.03 fL. For the same compound, the MONOCYTE (120 h, time 5 day) was 1.63%, the NEUTROPHIL (120 h, time 5 day) was 5.2% and the “PLATELET COUNT” value (120 h, time 5 day) was 1323.67 x10E3/uL. The “ALANINE AMINOTRANSFERASE” value (120 h, time 5 day) was 48 u/L, the ALBUMIN (120 h, time 5 day) was 4.1 G/DL and the “ALKALINE PHOSPHATASE” value (120 h, time 5 day) was 488 u/L. For the same compound, the “ASPARTATE AMINOTRANSFERASE” value (120 h, time 5 day) was 69 u/L, the “BLOOD UREA NITROGEN” value (120 h, time 5 day) was 13 mg/dL and the “CARBON DIOXIDE” value (120 h, time 5 day) was 30 mmol/L. For the same compound, the CHLORIDE (120 h, time 5 day) was 108 MEQ/L, the CHOLESTEROL (120 h, time 5 day) was 65.67 mg/dL and the “CREATINE PHOSPHOKINASE” value (120 h, time 5 day) was 139 u/L. For the same compound, the CREATININE (120 h, time 5 day) was 0.23 mg/dL, the GLUCOSE (120 h, time 5 day) was 152.33 mg/dL and the “LACTATE DEHYDROGENASE” value (120 h, time 5 day) was 44.67 u/L. The LIPASE (120 h, time 5 day) was 13.33 u/L, the PHOSPHORUS (120 h, time 5 day) was 14.7 mg/dL and the POTASSIUM (120 h, time 5 day) was 6.77 MEQ/L. For the same compound, the SODIUM (120 h, time 5 day) was 155 MEQ/L, the “TOTAL BILIRUBIN” value (120 h, time 5 day) was 0.2 mg/dL and the “TOTAL PROTEIN” value (120 h, time 5 day) was 6.33 G/DL. For the same compound, the “URIC ACID” value (120 h, time 5 day) was 1.63 mg/dL, the BASOPHIL ([…], time 14 day) was 0.38% and the EOSINOPHIL ([…], time 14 day) was 0.48%. The “ERYTHROCYTE COUNT” value ([…], time 14 day) was 8.25 x10E6/uL, the HEMATOCRIT ([…], time 14 day) was 49.54% and the HEMOGLOBIN ([…], time 14 day) was 16.32 G/DL. The “LEUKOCYTE COUNT” value ([…], time 14 day) was 14.35 x10E3/uL, the LYMPHOCYTE ([…], time 14 day) was 85.94% and the “MEAN CORPUSCULAR HEMOGLOBIN” value ([…], time 14 day) was 19.8 pg. For the same compound, the “MEAN CORPUSCULAR HEMOGLOBIN CONCENTRATION” value ([…], time 14 day) was 32.96 G/DL, the “MEAN CORPUSCULAR VOLUME” value ([…], time 14 day) was 60.04 fL and the MONOCYTE ([…], time 14 day) was 1.94%. For the same compound, the NEUTROPHIL ([…], time 14 day) was 9.64%, the “PLATELET COUNT” value ([…], time 14 day) was 1232.8 x10E3/uL and the “ALANINE AMINOTRANSFERASE” value ([…], time 14 day) was 40.6 u/L. For the same compound, the ALBUMIN ([…], time 14 day) was 4.46 G/DL, the “ALKALINE PHOSPHATASE” value ([…], time 14 day) was 403.4 u/L and the “ASPARTATE AMINOTRANSFERASE” value ([…], time 14 day) was 73.6 u/L. For the same compound, the “BLOOD UREA NITROGEN” value ([…], time 14 day) was 15.2 mg/dL, the “CARBON DIOXIDE” value ([…], time 14 day) was 30.8 mmol/L and the CHLORIDE ([…], time 14 day) was 102.2 MEQ/L. The CHOLESTEROL ([…], time 14 day) was 89.2 mg/dL, the “CREATINE PHOSPHOKINASE” value ([…], time 14 day) was 155.8 u/L and the CREATININE ([…], time 14 day) was 0.44 mg/dL. For the same compound, the GLUCOSE ([…], time 14 day) was 145 mg/dL, the “LACTATE DEHYDROGENASE” value ([…], time 14 day) was 118.6 u/L and the LIPASE ([…], time 14 day) was 18.2 u/L. It also gave a PHOSPHORUS ([…], time 14 day) of 9.42 mg/dL, a POTASSIUM ([…], time 14 day) of 6.64 MEQ/L and an SODIUM ([…], time 14 day) of 148.8 MEQ/L. For the same compound, the “TOTAL BILIRUBIN” value ([…], time 14 day) was 0.56 mg/dL, the “TOTAL PROTEIN” value ([…], time 14 day) was 7.2 G/DL and the “URIC ACID” value ([…], time 14 day) was 2.16 mg/dL.
